Measured values reported in US11129870B2, “Compositions and methods for uncoupling TrkB receptor from PLC gamma 1 for the treatment of epilepsy and anxiety-like disorder” (DUKE UNIVERSITY, priority 2010, dated 2021).
Where no end group is shown, it is not given here. [ ]: non-standard residue; d: D form. pY = N[C@@H](Cc1ccc(OP(=O)(O)O)cc1)C(=O)O

How the values were obtained:
[1] = test system: kainic acid-induced status epilepticus; assay: Status epilepticus induced by kainic acid infusion into amygdala, peptide given i.v. before KA; assay type: in vivo, mouse
Protocol: FIG. 15: Continuous limbic and tonic-clonic seizures (status epilepticus) were induced in awake, adult male WT C57BL/6 mice weighing 20-25 g by unilateral stereotaxic microinjection of 0.3 μg kainic acid (KA) in a volume of 0.2 μl PBS, pH 7.4, into the right basolateral amygdala nucleus. Seven to nine days prior to KA infusion, a guide cannula was placed in the right amygdala under pentobarbital anesthesia using the following stereotactic coordinates relative to bregma: AP, −0.94 mm; ML, −2.85 mm; and DV, −3.75 mm (AP, anterior-posterior; ML, medio-lateral; DV, dorso-ventral); additionally, a bipolar EEG recording electrode was implanted into contralateral dorsal hippocampus: AP, −2.00 mm; ML, 1.60 mm; and DV, −1.53 mm. Phospho-Tat-pTrkBY816 or Scr-phospho-Tat-pTrkBY816 was injected intravenously through tail vein before amygdala KA infusion. EEG and mice behavior were recorded by EEG recording device and video camera respectively for 45 min following infusion of KA. Design of the time course and dose response experiments are presented in top and bottom panels respectively.
As described previously, microinjection of kainic acid into the right amygdala of awake, adult mice reliably induces continuous limbic and clonic motor seizures accompanied by electrographic evidence of seizure activity as detected by EEG recording electrode in the contralateral hippocampus. Status epilepticus is terminated by intraperitoneal administration of diazepam 45 minutes following infusion of kainic acid.
We asked whether intravenous infusion of Tat-pTrkBY816 via tail vein inhibited status epilepticus induced by microinjection of kainic acid into the right amygdala (FIG. 15). […] The inhibition of status epilepticus was also dose dependent. […] Whereas a dose of 1 mg/kg of Tat-pTrkBY816 was ineffective, doses of 3 mg/kg and 10 mg/kg effected a striking inhibition such that status epilepticus was prevented in at least 70% of animals (FIG. 17, top). By contrast, kainic acid induced status epilepticus in all animals pretreated with the control scr-Tat-pTrkBY816 regardless of dose (FIG. 17, top).
(§1) Surgery and microinfusion studies provided in Examples 10-14 were performed as described here. Surgery and microinfusion of KA into right amygdala of adult mice was performed as previously described (Liu, G. et al., (2013) Neuron 79:31-38). Briefly, mice were anesthetized with pentobarbital (60 mg/kg, intraperitoneally [i.p.]) and placed in a stereotaxic frame. A guide cannula was stereotactically placed above the right amygdala (coordinates from bregma: AP=−1.2 mm; ML=3.0 mm). A bipolar electrode was placed in the left dorsal hippocampus (coordinates from bregma: AP=−2.0 mm; ML=−1.6 mm; DV=−1.5 mm). A ground electrode connected to a screw was placed in the skull above the cerebellum. After a postoperative recovery period of 7 days, the animal was gently restrained and an infusion cannula was inserted into the right amygdala through the guide cannula at the depth of 3.7 mm below dura. Either KA (0.3 μg in 0.5 μl PBS) or vehicle control (0.5 μl of PBS) was infused into the right basolateral amygdala at the rate of 0.11 μl per minute. The infusion cannula was left in the right amygdala for two additional minutes before being withdrawn from the guide cannula. Animals were housed individually for time locked electroencephalogram (EEG) telemetry and video monitoring with food and water ad libitum.
Emergence of SE was typically evident in EEG recordings 5-10 min after KA infusion. The behavioral seizures associated with electrographic seizures typically consisted of immobility, followed by facial automatisms, unilateral or bilateral forelimb clonus, and whole body clonus. Tonic-clonic seizures with loss of posture and jumping also occurred during the seizures (Mouri, G. et al., (2008) Brain Res 1213:140-151). For experiments in which p816 or Scr was administered prior to SE, mice were monitored for 45 min following KA infusion. […]

[2] = test system: spontaneous recurrent seizures; assay: SE-induced epilepsy: spontaneous recurrent seizures by video-EEG after 3 days of treatment following KA-SE; assay type: in vivo, mouse; conditions: for animals with initial spontaneous seizure within 3 days following SE: 10 mg/kg i.v. x3, n=8; for number of spontaneous seizures: n=8, mean±SEM; for spontaneous recurrent seizures per animal (range): for pY816 the six animals with seizures
Protocol: as §1
Emergence of SE was typically evident in EEG recordings 5-10 min after KA infusion. The behavioral seizures associated with electrographic seizures typically consisted of immobility, followed by facial automatisms, unilateral or bilateral forelimb clonus, and whole body clonus. Tonic-clonic seizures with loss of posture and jumping also occurred during the seizures (Mouri, G. et al., (2008) Brain Res 1213:140-151). For experiments in which p816 or Scr was administered prior to SE, mice were monitored for 45 min following KA infusion. EEG patterns consistent with electrographic SE included any of the following: 1. discrete electrographic seizures; 2. waxing and waning epileptiform activity; 3. continuous, high amplitude, rapid spiking; 4. periodic epileptiform discharges on a relatively flat background as described by Treiman, D. M. et al., (1990) Epilepsy Res 5:49-60 and Walton, et. al., (1988) Exp Neurol 101:267-275. Behavioral patterns consistent with seizures included Classes 3-6 as described in the following section (Racine, R. J. (1972) Electroencephalogr Clin Neurophysiol 32:281-294; Borges, K. et al., (2003) Exp Neurol 182:21-34). The duration of behavioral and electrographic SE were determined by analyses of video and EEG data by trained observers blinded to treatment of mice. A similar method was used in experiments examining effects of mutations (trkB^PLC/PLC and PLCγ1^+/−) on SE induced by KA. For experiments in which p816 or Scr was administered following SE, diazepam (10 mg/kg, i.p.) was administered 40 minutes after the onset of SE followed by lorazepam (6 mg/kg, i.p.) one hour later to suppress SE and limit the mortality and morbidity of this model. Animals underwent continuous video-EEG monitoring 24 hr per day, 7 days per week for first two weeks post-SE (day 1-14). At the end of the second week post-SE, monitoring was discontinued and animals were returned to home cages. After a two-week interval, monitoring was resumed for an additional two weeks (day 29-42). Spontaneous recurrent seizures were identified by review of video-EEG files by independently by each of two trained readers blinded to treatment of mice. The consistency of identifying SRS between readers was ˜90%; in instances in which readers disagreed, the events were excluded from this study. SRS was defined electrographically as high frequency (>5 Hz), high amplitude (>2×baseline) rhythmic epileptiform activity with a minimal duration of 5 s and behaviorally with video-monitoring (see behavioral-seizure scoring). […]

## YGRKKRRQRRR-LQNLAKASPVpYLDI (YGRKKRRQRRRLQNLAKASPV[pY]LDI) [pY816]
[1]; 1 mg/kg i.v., six hours prior to KA
  inhibition of status epilepticus: ineffective
[1]; 3 mg/kg i.v., six hours prior to KA
  animals in which status epilepticus was prevented: at least 70%
[1]; 10 mg/kg i.v.
  earliest time at which inhibitory effects were evident following i.v. infusion: 10 min
  inhibition of status epilepticus remitted by: ≤ 72 h
  peak of inhibition of status epilepticus (pretreatment interval): 0.5 h
  persistence of inhibition of status epilepticus: 24 h
  return of seizure inhibition to control levels by: ≤ 72 h
[1]; 10 mg/kg i.v., 0.16-72 hr prior to KA
  inhibition of status epilepticus (time course): striking time dependent inhibition of status epilepticus
[1]; 10 mg/kg i.v., 0.5 hour prior to KA
  status epilepticus at 0.5 hour pretreatment: eliminated altogether
[1]; 10 mg/kg i.v., 6 hr prior to KA
  maximal inhibition of convulsive motor and electrographic seizures: 90%
[1]; 10 mg/kg i.v., compared to scrambled control peptide 10 mg/kg
  latency to the onset of status epilepticus: prolonged
[1]; 10 mg/kg i.v., six hours prior to KA
  animals in which status epilepticus was prevented: at least 70%
[1]; 10 mg/kg i.v., six hours prior to KA, compared to Scr-phospho-Tat-pTrkBY816
  increase of latency to onset of status epilepticus: 3 fold
[1]; 10 mg/kg i.v., up to 24 hr prior to KA
  inhibition of convulsive motor and electrographic seizures persisting for 24 hr: 80-90%
[1]; 10 mg/kg i.v., earliest time tested
  onset of inhibition of status epilepticus (pretreatment interval): 0.16 h
[1]; 1, 3, 10 mg/kg i.v., six hours prior to KA
  latency to onset of behavioral status epilepticus (dose response): increased the latency to onset of behavioral status epilepticus in a dose dependent fashion
[2]; 10 mg/kg i.v. immediately, 24 hr and 48 hr after SE, compared to control
  latency to the onset of the first spontaneous seizure: delayed
[2]
  animals with initial spontaneous seizure within 3 days following SE: single
[2]; days 1-14 after SE
  reduction in the number of spontaneous seizures compared to Scr: 86%
  number of spontaneous seizures: 2.4±0.6
[2]; days 29-42 after SE
  reduction in the number of spontaneous seizures compared to Scr: 90%
  number of spontaneous seizures: 1.5±0.4
  spontaneous recurrent seizures per animal (range): 1-3 seizures
[2]; days 29-42 after SE, of eight treated
  animals that exhibited no seizures: two

## YGRKKRRQRRRLVApYQLKIAPNDLS (YGRKKRRQRRRLVA[pY]QLKIAPNDLS) [Scr, reference compound]
[1]; 10 mg/kg i.v. at different times prior to KA
  animals in which kainic acid induced status epilepticus: 23 of 24
[1]; i.v. prior to KA infusion into amygdala
  KA-induced seizures following i.v. infusion of peptide: prolonged convulsive motor and electrographic seizures
[1]; regardless of dose (1, 3, 10 mg/kg), six hours prior to KA
  animals in which kainic acid induced status epilepticus: all animals
[2]
  animals with initial spontaneous seizure within 3 days following SE: 5 of 8
[2]; days 1-14 after SE
  number of spontaneous seizures: 18.1±1.7
[2]; days 29-42 after SE
  number of spontaneous seizures: 16.5±3.5
  spontaneous recurrent seizures per animal (range): 7-36 seizures
